This note sets out measurements from US20100267778A1, “Diphenyl ether compound, process for producing the same, and use” (priority 2003, published 2010).

Molecules are shown by their SMILES.

The target of one test is T1, human PPAR δ (Homo sapiens, UniProt Q03181).
T1 construct: expressed in transfected cells; host or cells: CV-1 cells
T1 sequence (Q03181 139-441): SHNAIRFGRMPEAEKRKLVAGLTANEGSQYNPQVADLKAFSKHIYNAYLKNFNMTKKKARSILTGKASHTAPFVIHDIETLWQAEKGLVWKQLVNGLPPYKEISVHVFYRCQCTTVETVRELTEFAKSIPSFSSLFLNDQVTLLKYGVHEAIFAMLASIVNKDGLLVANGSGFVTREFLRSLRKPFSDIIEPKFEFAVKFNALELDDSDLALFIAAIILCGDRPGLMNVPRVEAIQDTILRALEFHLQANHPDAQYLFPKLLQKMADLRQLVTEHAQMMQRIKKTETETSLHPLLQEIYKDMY
The test can be described thus: Luciferase assay using human PPAR δ (Gal4-PPAR δ ligand binding domain chimera, CV-1 cells). Format: cell-based. To be noted: relative value, carbacyclin at 30 μM defined as 1.

Test [1] relates to Male mice (C57BL/6NCrj) loaded with a high-cholesterol feed. Nature of the test: Lowering action for cholesterol in blood and lipid in blood, mice loaded with high-cholesterol feed. Format: in vivo. To be noted: relative value, medium group = 100%. The method, then: Lowering action for cholesterol in blood and lipid in blood:
Male mice of seven weeks age (C57BL/6NCrj) was loaded with a high-cholesterol feed (CRF-1 Solid Feed in which 5.5% of peanut oil, 1.5% of cholesterol and 0.5% of cholic acid were mixed; Oriental Bio Service) for six days, then body weight of the […] was measured under fasting and the following various parameter concentrations were measured. Measured items were LDL, HDL, TG value, NEFA and TC value. […] From the next day, a compound suspended in a medium (a 0.5% methyl cellulose solution) was compulsorily administered per os once daily for continuous six days and, at the same time, loading with the high cholesterol feed was continued as well. On the next day of the final administration (i.e., on the seventh day from the start of the administration), lipid levels in blood (TG, HDL, LDL, NEFA and TC values) were measured.
When the data were expressed as relative values where the value for the group to which a medium was administered was defined as 100%, a raising action for HDL and a lowering action for LDL of the compound produced in Example 9 (47) were as shown in Table 2.

[2] abbreviates: dose 3 mg/kg per os once daily for six days.
Where [3] appears, read: dose 10 mg/kg per os once daily for six days.
[4] abbreviates: dose 30 mg/kg per os once daily for six days.

With `Cc1cc(Oc2ccc(C)cc2OCC#Cc2ccc(C(F)(F)F)cc2)cc(C(=O)O)c1` [Example 9 (47), 3-methyl-5-[4-methyl-2-({3-[4-(trifluoromethyl)phenyl]-2-propynyl}oxy)phenoxy]benzoic acid], the figures for the Transcription activation degree on human PPAR δ (final concentration 0.1 μM), at human PPAR δ (final concentration 0.3 μM) and at human PPAR δ (final concentration 1.0 μM) were 0.73 Fold Increase, 1.09 Fold Increase and 1.02 Fold Increase, respectively. Also, the HDL-raising action in test [1] (setting [2]) is recorded as 112.0%; in test [1] (setting [3]), 110.2%; in test [1] (setting [4]) it was 130.7%. For the same compound, the LDL-lowering action in test [1] (setting [2]) stood at 89.7%; in test [1] (setting [3]), 85.3%; in test [1] (setting [4]) it was 84.4%.
